We go through two compounds from US20130150363A1, “Method of Treating Cancer Using a cMET and AXL Inhibitor and an ErbB Inhibitor” (GlaxoSmithKline, priority 2008, published 2013).

Type in all cases: cell-based
The test system of experiment [1] is NCI-H2170 lung carcinoma cells. Description: Cell growth inhibition (CellTiter-Glo), NCI-H2170. The note with it: Homo sapiens, NCI-H2170, 72 h, 3 days. An excerpt: (§1) Esophageal carcinoma cell line OE33 was purchased from ECACC European Collection of Cell Cultures (UK). Breast cancer cell line JIMT-1 and gastric carcinoma cell line MKN-45 were purchased from Deutsche Sammlung von Mikroorganismen and Zellkulturen GmbH (Germany); KPL-4, a human breast cancer cell line was kindly provided by Prof. J Kurebayashi (Kawasaki Medical School, Kurashiki, Japan). […] The LICR-LON-HN5 head and neck carcinoma cell line (HN5) was a gift from the Institute of Cancer Research, Surrey, U.K. HN5C12 was developed by single-cell cloning of HN5 followed by exposure to increasing concentrations of lapatinib. […] Cell growth inhibition was determined via CellTiter-Glo cell viability assays. […] BT474-J4 and HN5C12 were washed with PBS and plated in their culture media without lapatinib. […] ATP levels were determined by adding Cell Titer Glo0 (Promega), incubating for 20 minutes then the luminescent signal was read on the SpectraMax M5 plate with a 0.5 second integration time. Cell growth was calculated relative to vehicle (DMSO) treated control wells. […] y=([…]) where A is the minimum response (ymin), B is the maximum response (ymax), c is the inflection point of the curve (EC50), d is the Hill coefficient, and x is the log10 compound concentration (moles/L). CI values were calculated with the interpolated IC50 values and the mutually non-exclusive equation derived by Chou and […](a)+Db/IC50(b)+(Da×Db)/(IC50(a)×IC50(b)) where IC50(a) is the IC50 of the inhibitor A; IC50(b) is the IC50 for the inhibitor B; […] Excess Over Highest Single Agent (EOHSA) is defined as a statistically significant improvement in the combination compared to the component monotherapies. […] See Borisy et al. (2003) or Hung et al. (1993) for examples and discussion. Analysis was conducted using two-factor analysis of variance with interaction (model terms were dose of drug A, dose of drug B, and interaction between doses of drug A and B), followed by linear contrasts between each combination group and corresponding monotherapies. Analysis was conducted using SAS (version 9, provided by SAS Institute, Cary, N.C.). EOHSA at each dose was calculated as the minimum difference in average % inhibition between the combination and each monotherapy, from the appropriate ANOVA contrast. Since there are many comparisons for the % inhibition endpoint, p-value adjustment for multiple comparisons was performed. Hommel's procedure was implemented in order to improve the power while retaining […] Error Rate (FWE) control by using a sequentially rejective method. The p-values for both synergy and antagonism were calculated using this adjustment.
Background: Cellular ATP, detected with luciferase, serves as a proxy for viable cell number.

Experiment [2] has as its system NCI-H69 lung carcinoma cells. Description: Cell growth inhibition (CellTiter-Glo), NCI-H69. The note with it: Homo sapiens, NCI-H69, 72 h, 3 days.
Excerpt: as §1

Experiment [3] has as its system HN5 head and neck carcinoma cells. The experiment can be described thus: Cell growth inhibition (CellTiter-Glo), HN5. Particulars: Homo sapiens, 72 h, 3 days.
Excerpt: as §1

The next experiment concerns ovary_SKOV3 tumor cells. The experiment can be described thus: Cell growth inhibition (CellTiter-Glo), SKOV3. Particulars: Homo sapiens, SK-OV-3, 72 h, 3 days. On the procedure: Cell growth inhibition was determined via CellTiter-Glo cell viability assays. […] BT474-J4 and HN5C12 were washed with PBS and plated in their culture media without lapatinib. […] ATP levels were determined by adding Cell Titer Glo0 (Promega), incubating for 20 minutes then the luminescent signal was read on the SpectraMax M5 plate with a 0.5 second integration time. Cell growth was calculated relative to vehicle (DMSO) treated control wells. […] y=([…]) where A is the minimum response (ymin), B is the maximum response (ymax), c is the inflection point of the curve (EC50), d is the Hill coefficient, and x is the log10 compound concentration (moles/L). CI values were calculated with the interpolated IC50 values and the mutually non-exclusive equation derived by Chou and […](a)+Db/IC50(b)+(Da×Db)/(IC50(a)×IC50(b)) where IC50(a) is the IC50 of the inhibitor A; IC50(b) is the IC50 for the inhibitor B; […] Excess Over Highest Single Agent (EOHSA) is defined as a statistically significant improvement in the combination compared to the component monotherapies. […] In statistical terms, the maximum of the p-value's for the two comparisons Aq+Br vs Aq and Aq+Br vs Br should be less than or equal to an appropriate cutoff, p≦0.05. EOHSA is a common approach for evaluating drug combinations, and is an FDA criterion (21 CRF 300.50) for combination drug approval. See Borisy et al. (2003) or Hung et al. (1993) for examples and discussion. Analysis was conducted using two-factor analysis of variance with interaction (model terms were dose of drug A, dose of drug B, and interaction between doses of drug A and B), followed by linear contrasts between each combination group and corresponding monotherapies. Analysis was conducted using SAS (version 9, provided by SAS Institute, Cary, N.C.). EOHSA at each dose was calculated as the minimum difference in average % inhibition between the combination and each monotherapy, from the appropriate ANOVA contrast. Since there are many comparisons for the % inhibition endpoint, p-value adjustment for multiple comparisons was performed. Hommel's procedure was implemented in order to improve the power while retaining […] Error Rate (FWE) control by using a sequentially rejective method. The p-values for both synergy and antagonism were calculated using this adjustment.

For experiment [4], the system named is Detroit 562 head and neck squamous cell carcinoma cells. Description: Cell growth inhibition (CellTiter-Glo), Detroit 562. The note with it: Homo sapiens, Detroit 562, 72 h, 3 days.
Excerpt: as §1

Experiment [5] has as its system A431 epidermal carcinoma cells. Description: Cell growth inhibition (CellTiter-Glo), A431. Particulars: Homo sapiens, A-431, 72 h, 3 days.
Excerpt: as §1

Broadly, the IC50 is the concentration at which inhibition is half-maximal. Turning to `CS(=O)(=O)CCNCc1ccc(-c2ccc3ncnc(Nc4ccc(OCc5cccc(F)c5)c(Cl)c4)c3c2)o1` [Lapatinib, N-(3-chloro-4-{[(3-fluorophenyl)methyl]oxy}phenyl)-6-[5-({[2-(methylsulfonyl)ethyl]amino}methyl)-2-furanyl]-4-quinazolinamine], the IC50 in experiment [1] (lung_H2170, +HGF (2 ng/mL)) came to 4.24 µM; in experiment [1] (lung_H2170, −HGF) it was 0.26 µM; in experiment [2] (lung_H69, +HGF (2 ng/mL)) it was 4.74 µM; in experiment [2] (lung_H69, −HGF), 5.36 µM; in experiment [3] (hn_HN5, +HGF (2 ng/mL)), 3.69 µM; in experiment [3] (hn_HN5, −HGF) it was 2.37 µM. Moreover, the IC50 was 5.67 µM in the experiment on ovary_SKOV3 tumor cells (ovary_SKOV3, +HGF (2 ng/mL)); 5.02 µM in the experiment with ovary_SKOV3 tumor cells (ovary_SKOV3, −HGF); 4.64 µM in experiment [4] (hn_Detroit562, +HGF (2 ng/mL)); 4.02 µM in experiment [4] (hn_Detroit562, −HGF); 4.6 µM in experiment [5] (skin_A431, +HGF (2 ng/mL)); 2.19 µM in experiment [5] (skin_A431, −HGF).
Turning to `C#Cc1cccc(Nc2ncnc3cc(OCCOC)c(OCCOC)cc23)c1` [Erlotinib, N-(3-ethynylphenyl)-6,7-bis{[2-(methyloxy)ethyl]oxy}-4-quinazolinamine], the IC50 is 7.74 µM in experiment [1] (lung_H2170, +HGF (2 ng/mL)); 1.28 µM in experiment [1] (lung_H2170, −HGF); greater than 10 µM in experiment [2] (lung_H69, +HGF (2 ng/mL)); greater than 10 µM in experiment [2] (lung_H69, −HGF); greater than 10 µM in experiment [3] (hn_HN5, +HGF (2 ng/mL)); 6.72 µM in experiment [3] (hn_HN5, −HGF). Further, the IC50 with ovary_SKOV3 tumor cells (ovary_SKOV3, +HGF (2 ng/mL)) was 5.39 µM; in the experiment on ovary_SKOV3 tumor cells (ovary_SKOV3, −HGF) it was 5.62 µM; in experiment [4] (hn_Detroit562, +HGF (2 ng/mL)), greater than 10 µM; in experiment [4] (hn_Detroit562, −HGF), greater than 10 µM; in experiment [5] (skin_A431, +HGF (2 ng/mL)), greater than 10 µM; in experiment [5] (skin_A431, −HGF) it was 3.22 µM.
